Measurements from publication PMC3608651, “A Broad Profile of Co-Dominant Epitopes Shapes the Peripheral Mycobacterium tuberculosis Specific CD8+ T-Cell Immune Response in South African Patients with Active Tuberculosis” (PLoS ONE, 2013).

Legend:
Type in all cases: binding
[1] = molecular target: HLA-A*30:01 (Homo sapiens, UniProt P04439, D140H/D185E/E176W/F33S/G80R/H175R/K168Q/R138E/R41S); conditions: percent relative the binding of positive control peptide […]; duplicated experiments; positive binder >40%
[2] = molecular target: HLA-B*07:02 (Homo sapiens, UniProt P01889); conditions: percent relative the binding of positive control peptide […]; duplicated experiments; positive binder >40%
[3] = molecular target: HLA-A*24:02 (Homo sapiens, UniProt P04439, D101N/D140Y/D185E/E176V/E190D/F33S/G103R/G107R/I119L/I121M/I306V/K335N/L105A/L180Q/L300P/N151K/N90K/Q86E/Q94H/R106L/R138H/R89G/T104I/T345S/V100E/W191G/Y123F); conditions: percent relative the binding of positive control peptide […]; duplicated experiments; positive binder >40%
[4] = molecular target: HLA-C*07:01 (Homo sapiens, UniProt P10321, K90N/S123Y); conditions: percent relative the binding of positive control peptide […]; duplicated experiments; positive binder >40%
[5] = molecular target: HLA-A*02:01 (Homo sapiens, UniProt P04439, D140Y/D185E/D98H/E176V/E277Q/G131W/G231S/I119V/I121R/I166T/I218V/L300P/L318F/N151K/N90K/P208A/P217A/Q86G/Q94H/R138H/R169H/T345S); conditions: percent relative the binding of positive control peptide […]; plate-bound monomer 0.5 µg/ml; duplicated experiments; positive binder >40%
[6] = molecular target: HLA-A*68:01 (Homo sapiens, UniProt P04439, A269V/D185E/E176V/E277Q/E87N/F33Y/G231S/I121M/I166T/I218V/L180W/L300P/L318F/N151K/P208A/P217A/Q86R/R169H/T345S); conditions: percent relative the binding of positive control peptide […]; duplicated experiments; positive binder >40%
[7] = molecular target: HLA-B*58:01 (Homo sapiens, UniProt P01889, A329T/C349S/D201E/D98Y/E176V/E187L/E204Q/E69T/G107R/I218V/I90N/K202T/L105A/L119I/N104I/N87E/Q89R/Q94S/R106L/R155S/R180L/R86G/S101N/S121R/S35A/S48A/T118I/V127L/V306I/V36M/Y140S/Y91M); conditions: percent relative the binding of positive control peptide […]; duplicated experiments; positive binder >40%
[8] = molecular target: HLA-A*30:02 (Homo sapiens, UniProt P04439, D101N/D140H/D185E/E176R/F33S/G80R/H175R/K168Q/Q94H/R138E/R41S/V100E); conditions: percent relative the binding of positive control peptide […]; duplicated experiments; positive binder >40%

Substance	Bind A*30:01 [1] [%]	Bind B*07:02 [2] [%]	Bind A*24:02 [3] [%]	Bind C*07:01 [4] [%]	Bind A*02:01 [5] [%]	Bind A*68:01 [6] [%]	Bind B*58:01 [7] [%]	Bind A*30:02 [8] [%]
QQFIYAGSL	0	0	0	27	42	0	8	80
AEFLENFVR	0	0	1	13	12	63	10	0
FLENFVRSS	0	0	5	5	77	7	0	0
QLNAMKGDL	10	49	60	17	71	0	0	0
MW GPSSDPA	0	3	24	0	6	7	0	74
QQIPKLVAN	10	2	0	15	36	2	16	60
LTSELPQW L	0	7	9	2	56	0	34	19
PTQQIPKLV	10	5	11	22	3	0	9	86
KPTGSAAIG	0	51	0	0	0	0	0	0
MGDAGGYKA	0	0	0	0	45	9	0	0
